pIC50: −log10 of the molar value.
Each compound was assayed against hBTK (full-length BTK, 6HIS-tag cleaved) (Homo sapiens (Human), UniProt Q06187) (assay: BTK enzymatic activity, LANCE TR-FRET assay (Assay Method C)). Details: LANCE TR-FRET, 50 pM hBTK, 25 μM ATP; class 100-1000 is given as ≧100 nM-<1 μM; read-out: IC50 Btk activity values - Assay Method C.
Assay type: biochemical

Sequence of hBTK (full-length BTK, 6HIS-tag cleaved) (Q06187 whole entry): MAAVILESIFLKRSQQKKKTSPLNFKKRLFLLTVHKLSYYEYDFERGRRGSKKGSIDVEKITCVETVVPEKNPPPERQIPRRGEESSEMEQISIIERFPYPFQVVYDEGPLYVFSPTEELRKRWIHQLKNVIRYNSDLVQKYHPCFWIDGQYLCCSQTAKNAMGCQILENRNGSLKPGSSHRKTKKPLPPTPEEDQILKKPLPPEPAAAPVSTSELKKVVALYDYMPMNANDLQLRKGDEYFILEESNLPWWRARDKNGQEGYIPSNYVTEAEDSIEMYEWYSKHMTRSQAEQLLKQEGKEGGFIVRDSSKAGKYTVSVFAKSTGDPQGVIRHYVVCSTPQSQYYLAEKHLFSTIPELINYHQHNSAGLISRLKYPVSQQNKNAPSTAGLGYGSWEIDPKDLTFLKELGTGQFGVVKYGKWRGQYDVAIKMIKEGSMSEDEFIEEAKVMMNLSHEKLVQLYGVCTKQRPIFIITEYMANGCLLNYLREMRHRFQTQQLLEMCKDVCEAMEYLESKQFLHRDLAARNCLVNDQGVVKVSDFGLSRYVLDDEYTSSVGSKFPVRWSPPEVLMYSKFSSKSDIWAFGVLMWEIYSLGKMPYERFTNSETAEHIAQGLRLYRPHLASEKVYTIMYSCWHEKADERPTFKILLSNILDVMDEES

SMILES | pIC50
COc1ccnc(NC(=O)c2ccc(-c3nn([C@@H]4CCCN(C(=O)C5(C)COC5)C4)c4ccnc(N)c34)cc2)c1 [Example 388, 4-(4-amino-1-{(3R)-1-[(3-methyloxetan-3-yl)carbonyl]piperidin-3-yl}-1H-pyrazolo[4,3-c]pyridin-3-yl)-N-(4-methoxypyridin-2-yl)benzamide] | > 8.00
C[C@H]1CC[C@@H](c2nc(-c3ccc(C(=O)Nc4cc(C(F)(F)F)ccn4)c(Cl)c3)c3c(N)nccn23)CN1C(=O)C1(C)COC1 [Example 400, 4-(8-amino-3-{(3R,6S)-6-methyl-1-[(3-methyloxetan-3-yl)carbonyl]piperidin-3-yl}imidazo[1,5-a]pyrazin-1-yl)-2-chloro-N-[4-(trifluoromethyl)pyridin-2-yl]benzamide] | > 8.00
CN1C[C@@H](c2nc(-c3ccc(C(=O)Nc4cc(C(F)(F)F)ccn4)cc3)c3c(N)nccn23)CC[C@@H]1C(F)(F)F [Example 410, 4-{8-amino-3-[(3S,6R)-1-methyl-6-(trifluoromethyl)piperidin-3-yl]imidazo[1,5-a]pyrazin-1-yl}-N-[4-(trifluoromethyl)pyridin-2-yl]benzamide] | > 8.00
CN1C[C@@H](c2nc(-c3ccc(C(=O)Nc4cc(C(F)(F)F)ccn4)cc3F)c3c(N)nccn23)CC[C@@H]1C(F)(F)F [Example 411, 4-{8-amino-3-[(3S,6R)-1-methyl-6-(trifluoromethyl)piperidin-3-yl]imidazo[1,5-a]pyrazin-1-yl}-3-fluoro-N-[4-(trifluoromethyl)pyridin-2-yl]benzamide] | > 8.00
Nc1nccn2c([C@H]3CC[C@@H](CO)N(C(=O)C4CC4)C3)nc(-c3ccc(C(=O)Nc4cc(C(F)(F)F)ccn4)cc3)c12 [Example 419, 4-{8-amino-3-[(3S,6S)-1-(cyclopropylcarbonyl)-6-(hydroxymethyl)piperidin-3-yl]imidazo[1,5-a]pyrazin-1-yl}-N-[4-(trifluoromethyl)pyridin-2-yl]benzamide] | > 8.00
Nc1nccn2c([C@H]3CC[C@H](C(F)(F)F)N(C(=O)C4CC4)C3)nc(-c3ccc(C(=O)Nc4cc(F)ccn4)cc3)c12 [Example 424, 4-{8-amino-3-[(3S,6R)-1-(cyclopropylcarbonyl)-6-(trifluoromethyl)piperidin-3-yl]imidazo[1,5-a]pyrazin-1-yl}-N-(4-fluoropyridin-2-yl)benzamide] | > 8.00
Cc1ccnc(NC(=O)c2ccc(-c3nc([C@H]4CC[C@H](C(F)(F)F)N(C(=O)C5CC5)C4)n4ccnc(N)c34)cc2)c1 [Example 425, 4-{8-amino-3-[(3S,6R)-1-(cyclopropylcarbonyl)-6-(trifluoromethyl)piperidin-3-yl]imidazo[1,5-a]pyrazin-1-yl}-N-(4-methylpyridin-2-yl)benzamide] | > 8.00

Other lines, results leading:

pIC50 | SMILES
> 8.00 | COCCC(=O)N1C[C@H](c2nc(-c3ccc(C(=O)Nc4cc(C(F)(F)F)ccn4)c(F)c3)c3c(N)nccn23)CC[C@@H]1C [Example 392, 4-{8-amino-3-[(3R,6S)-1-(3-methoxypropanoyl)-6-methylpiperidin-3-yl]imidazo[1,5-a]pyrazin-1-yl}-2-fluoro-N-[4-(trifluoromethyl)pyridin-2-yl]benzamide]
> 8.00 | C[C@H]1CC[C@@H](c2nc(-c3ccc(C(=O)Nc4cc(C(F)(F)F)ccn4)cc3)c3c(N)nccn23)CN1C(=O)C1(C)COC1 [Example 393, 4-(8-amino-3-{(3R,6S)-6-methyl-1-[(3-methyloxetan-3-yl)carbonyl]piperidin-3-yl}imidazo[1,5-a]pyrazin-1-yl)-N-[4-(trifluoromethyl)pyridin-2-yl]benzamide]
> 8.00 | Nc1nccn2c(C3CCC(C(F)(F)F)N(C(=O)C4CC4)C3)nc(-c3ccc(C(=O)Nc4cc(C(F)(F)F)ccn4)cc3F)c12 (stereo not drawn) [Example 399, 4-{8-amino-3-[1-(cyclopropylcarbonyl)-6-(trifluoromethyl)piperidin-3-yl]imidazo[1,5-a]pyrazin-1-yl}-3-fluoro-N-[4-(trifluoromethyl)pyridin-2-yl]benzamide]
> 8.00 | CCN1C[C@@H](c2nc(-c3ccc(C(=O)Nc4ccccn4)cc3)c3c(N)nccn23)CC[C@@H]1C(F)(F)F [Example 408, 4-{8-amino-3-[(3S,6R)-1-ethyl-6-(trifluoromethyl)piperidin-3-yl]imidazo[1,5-a]pyrazin-1-yl}-N-pyridin-2-ylbenzamide]
> 8.00 | C[C@H]1CC[C@@H](c2nc(-c3ccc(C(=O)Nc4cc(OC5CC5)ccn4)cc3)c3c(N)nccn23)CN1C(=O)C1(C)COC1 [Example 409, 4-(8-amino-3-{(3R,6S)-6-methyl-1-[(3-methyloxetan-3-yl)carbonyl]piperidin-3-yl}imidazo[1,5-a]pyrazin-1-yl)-N-[4-(cyclopropyloxy)pyridin-2-yl]benzamide]
> 8.00 | CNC(=O)N1C[C@@H](c2nc(-c3ccc(C(=O)Nc4cc(C(F)(F)F)ccn4)cc3)c3c(N)nccn23)CC[C@@H]1C(F)(F)F [Example 412, (2R,5S)-5-[8-amino-1-(4-{[4-(trifluoromethyl)pyridin-2-yl]carbamoyl}phenyl)imidazo[1,5-a]pyrazin-3-yl]-N-methyl-2-(trifluoromethyl)piperidine-1-carboxamide]
> 8.00 | C[C@H]1CC[C@@H](c2nc(-c3ccc(C(=O)Nc4cc(C(C)(F)F)ccn4)cc3)c3c(N)nccn23)CN1C(=O)C1(C)COC1 [Example 413, 4-(8-amino-3-{(3R,6S)-6-methyl-1-[(3-methyloxetan-3-yl)carbonyl]piperidin-3-yl}imidazo[1,5-a]pyrazin-1-yl)-N-[4-(1,1-difluoroethyl)pyridin-2-yl]benzamide]
> 8.00 | CN1C[C@@H](c2nc(-c3ccc(C(=O)Nc4cc(C(F)(F)F)ccn4)cc3)c3c(N)nccn23)CC[C@H]1C(F)(F)F [Example 414, 4-{8-amino-3-[(3S,6S)-1-methyl-6-(trifluoromethyl)piperidin-3-yl]imidazo[1,5-a]pyrazin-1-yl}-N-[4-(trifluoromethyl)pyridin-2-yl]benzamide]
> 8.00 | CCC(=O)N1C[C@@H](c2nc(-c3ccc(C(=O)Nc4cc(C(F)(F)F)ccn4)cc3)c3c(N)nccn23)CC[C@@H]1C(F)(F)F [Example 415, 4-{8-amino-3-[(3S,6R)-1-propanoyl-6-(trifluoromethyl)piperidin-3-yl]imidazo[1,5-a]pyrazin-1-yl}-N-[4-(trifluoromethyl)pyridin-2-yl]benzamide]
> 8.00 | CC(C)COc1ccnc(NC(=O)c2ccc(-c3nc([C@@H]4CC[C@H](C)N(C(=O)C5(C)COC5)C4)n4ccnc(N)c34)cc2)c1 [Example 417, 4-(8-amino-3-{(3R,6S)-6-methyl-1-[(3-methyloxetan-3-yl)carbonyl]piperidin-3-yl}imidazo[1,5-a]pyrazin-1-yl)-N-[4-(2-methylpropoxy)pyridin-2-yl]benzamide]
> 8.00 | C[C@H]1CC[C@@H](c2nc(-c3ccc(C(=O)Nc4cc(OCC(F)(F)F)ccn4)cc3)c3c(N)nccn23)CN1C(=O)C1(C)COC1 [Example 418, 4-(8-amino-3-{(3R,6S)-6-methyl-1-[(3-methyloxetan-3-yl)carbonyl]piperidin-3-yl}imidazo[1,5-a]pyrazin-1-yl)-N-[4-(2,2,2-trifluoroethoxy)pyridin-2-yl]benzamide]

Same assay, conditions: Table D; Assay Method C (LANCE TR-FRET), 50 pM hBTK, 25 μM ATP; read-out: IC50 BTK activity value

SMILES | pIC50
C[C@H]1CC[C@@H](c2nc(-c3ccc(C(=O)Nc4cc(C(F)(F)F)ccn4)cc3)c3c(N)nccn23)CN1C(=O)C1(C)COC1 [Example 393, 4-(8-amino-3-{(3R,6S)-6-methyl-1-[(3-methyloxetan-3-yl)carbonyl]piperidin-3-yl}imidazo[1,5-a]pyrazin-1-yl)-N-[4-(trifluoromethyl)pyridin-2-yl]benzamide] | 9.78
C[C@H]1CC[C@@H](c2nc(-c3ccc(C(=O)Nc4cc(C(F)(F)F)ccn4)c(Cl)c3)c3c(N)nccn23)CN1C(=O)C1(C)COC1 [Example 400, 4-(8-amino-3-{(3R,6S)-6-methyl-1-[(3-methyloxetan-3-yl)carbonyl]piperidin-3-yl}imidazo[1,5-a]pyrazin-1-yl)-2-chloro-N-[4-(trifluoromethyl)pyridin-2-yl]benzamide] | 9.02
C[C@H]1CC[C@@H](c2nc(-c3ccc(C(=O)Nc4cc(C(C)(F)F)ccn4)cc3)c3c(N)nccn23)CN1C(=O)C1(C)COC1 [Example 413, 4-(8-amino-3-{(3R,6S)-6-methyl-1-[(3-methyloxetan-3-yl)carbonyl]piperidin-3-yl}imidazo[1,5-a]pyrazin-1-yl)-N-[4-(1,1-difluoroethyl)pyridin-2-yl]benzamide] | 9.70

Source: patent US9718828B2 (MERCK SHARP & DOHME CORP., priority 2011, dated 2017)
